{"source": "paper PMC9208756", "about": "“A dual-target herbicidal inhibitor of lysine biosynthesis” (eLife, 2022)", "key": {"AtDHDPS1": {"target": "T1, AtDHDPS1 (Arabidopsis thaliana, UniProt Q9LZX6)", "T1 construct": "made in house", "T1 sequence (Q9LZX6 40-365)": "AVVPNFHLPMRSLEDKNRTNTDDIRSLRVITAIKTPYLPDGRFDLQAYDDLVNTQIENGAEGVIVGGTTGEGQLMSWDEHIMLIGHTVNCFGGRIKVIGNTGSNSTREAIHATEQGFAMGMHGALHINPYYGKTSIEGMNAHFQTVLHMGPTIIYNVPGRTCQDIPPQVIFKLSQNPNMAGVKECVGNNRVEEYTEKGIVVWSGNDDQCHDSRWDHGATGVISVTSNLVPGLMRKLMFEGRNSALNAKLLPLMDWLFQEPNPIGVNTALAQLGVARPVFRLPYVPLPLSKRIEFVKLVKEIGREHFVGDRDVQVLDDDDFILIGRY", "assay": "DHDPS enzyme inhibition assay, recombinant AtDHDPS1", "type": "biochemical"}, "AtDHDPS2 [1]": {"target": "T2, AtDHDPS2 (Arabidopsis thaliana, UniProt Q9FVC8)", "T2 construct": "made in house", "T2 sequence (Q9FVC8 40-365)": "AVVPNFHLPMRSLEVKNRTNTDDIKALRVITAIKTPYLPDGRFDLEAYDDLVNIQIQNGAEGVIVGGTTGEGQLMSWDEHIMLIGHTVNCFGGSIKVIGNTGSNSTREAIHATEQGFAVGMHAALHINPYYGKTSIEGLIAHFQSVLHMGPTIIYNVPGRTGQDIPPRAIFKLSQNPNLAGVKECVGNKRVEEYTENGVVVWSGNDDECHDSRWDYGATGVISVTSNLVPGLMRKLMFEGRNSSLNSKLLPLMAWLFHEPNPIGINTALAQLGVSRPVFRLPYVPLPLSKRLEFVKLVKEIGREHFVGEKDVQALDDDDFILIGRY", "assay": "DHDPS enzyme inhibition assay, recombinant AtDHDPS2", "type": "biochemical"}, "AtDHDPR1": {"target": "T3, AtDHDPR1 (Arabidopsis thaliana, UniProt O80574)", "T3 construct": "made in house", "T3 sequence (O80574 52-347)": "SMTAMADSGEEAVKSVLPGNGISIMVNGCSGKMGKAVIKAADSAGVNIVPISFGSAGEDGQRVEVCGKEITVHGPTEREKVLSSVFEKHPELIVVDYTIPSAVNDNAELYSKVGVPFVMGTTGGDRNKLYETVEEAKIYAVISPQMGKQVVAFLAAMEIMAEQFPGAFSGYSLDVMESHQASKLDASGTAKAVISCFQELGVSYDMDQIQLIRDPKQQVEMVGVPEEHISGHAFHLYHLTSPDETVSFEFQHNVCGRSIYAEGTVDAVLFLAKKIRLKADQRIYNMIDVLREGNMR", "assay": "DHDPR enzyme inhibition assay, recombinant AtDHDPR1", "type": "biochemical", "method": "(§1) Briefly, reaction mixtures were incubated at 30℃ for 12 min before a second 60-s incubation following the addition of excess E. coli DHDPS (51 µg ml^−1) for generation of the DHDP substrate. The relevant DHDPR isoform (2.6 µg ml^−1) was added to initiate the reaction, and substrate turnover measured spectrophotometrically at 340 nm via the associated oxidation of the cofactor NADPH. Experiments were performed in technical triplicates."}, "AtDHDPR2": {"target": "T4, AtDHDPR2 (Arabidopsis thaliana, UniProt Q8LB01)", "T4 construct": "made in house", "T4 sequence (Q8LB01 54-349)": "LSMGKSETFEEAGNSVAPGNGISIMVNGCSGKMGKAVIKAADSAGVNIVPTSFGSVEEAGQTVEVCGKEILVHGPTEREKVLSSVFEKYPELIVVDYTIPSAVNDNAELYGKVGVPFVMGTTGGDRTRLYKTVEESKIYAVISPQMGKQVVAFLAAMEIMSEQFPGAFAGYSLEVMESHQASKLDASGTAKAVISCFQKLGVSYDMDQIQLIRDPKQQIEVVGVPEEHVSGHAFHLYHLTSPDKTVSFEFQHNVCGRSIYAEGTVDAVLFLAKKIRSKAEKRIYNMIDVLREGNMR", "assay": "DHDPR enzyme inhibition assay, recombinant AtDHDPR2", "type": "biochemical", "method": "as §1"}, "AtDHDPR": {"tested_on": "AtDHDPR", "assay": "DHDPR enzyme inhibition, comparisons over both isoforms", "type": "biochemical, Arabidopsis thaliana", "method": "as §1"}, "Lolium rigidum": {"tested_on": "Lolium rigidum", "assay": "Herbicidal activity, pre-emergence treatment of soil-grown plants", "type": "in vivo", "method": ". Pre-wet seed-raising soil (pH 5.5) (Biogro, Dandenong South, VIC, Australia) supplemented with 0.22% (wt/wt) Nutricote N12 Micro 140 day-controlled release fertiliser (Yates, Sydney, NSW, Australia) was used. Ten seeds were sown at a depth of 0.5 cm into pots of pre-wet soil, following stratification at 4℃ for 21 days in the dark. Compounds dissolved in DMSO were diluted to working concentrations in H2O containing 0.01% (vol/vol) Agral (Syngenta, North Ryde, NSW, Australia) to a final DMSO concentration of 2% (vol/vol). Treatments were given by pipetting 2.0 ml of MBDTA-2, vehicle control or positive control (chlorosulfuron PESTANAL [Sigma-Aldrich, North Ryde, NSW, Australia]) directly onto seeds upon sowing and on each of the subsequent 2 days. Plants were grown in a chamber at 22℃ under a 16 hr light (100 µmol m^−2 s^−1)/8 hr dark schedule for 14 days before photos were taken. Roots and shoots were separated prior to drying at 70℃ for 72 hr. Experiments were performed in biological triplicates."}, "AtDHDPS2 [2]": {"target": "T2, AtDHDPS2", "parameters": "method as in Soares da Costa et al., 2021", "settings": "previously reported; ref Soares da Costa et al., 2021; cited from earlier work"}, "[3]": {"settings": "[HBDTA] 0.000125 M, replicates 1-3"}, "[4]": {"settings": "[HBDTA-2] 0.000125 M, replicates 1-3"}, "[5]": {"settings": "[HBDTA-2] 0.0005 M, replicates 1-3"}, "[6]": {"settings": "[MBDTA-2] 0.000125 M, limiting substrate and cofactor, replicates 1-3"}, "[7]": {"settings": "1200 mg l^−1, three pre-emergence treatments, 14 days, vs vehicle"}, "[8]": {"settings": "Treated, 1200 mg l^−1, biological triplicates"}}, "note": "Values joined by “and” are separate entries in the source; they are usually repeats but may differ in a detail not shown here. Equal values may be shown once. Read-outs that look alike come from different tables or passages of the source.", "data": [{"smiles": "O=C(O)CN1C(=O)S/C(=C\\c2ccc(O)cc2)C1=O", "note": "[HBDTA, (Z)-2-(5-(4-hydroxybenzylidene)-2,4-dioxothiazolidin-3-yl)acetic acid]", "values": [{"measurement": "remaining activity at 125 µM", "setting": "AtDHDPS1; [3]", "result": 31.1, "unit": "%"}, {"measurement": "IC50", "setting": "AtDHDPS1; recombinant enzyme", "result": "100 ± 0.95", "unit": "µM"}, {"measurement": "remaining activity at 125 µM", "setting": "AtDHDPS2 [1]; [3]", "result": 37, "unit": "%"}, {"measurement": "IC50", "setting": "AtDHDPS2 [1]; recombinant enzyme", "result": "105 ± 1.04", "unit": "µM"}, {"measurement": "remaining activity at 125 µM", "setting": "AtDHDPR1; [4]", "result": 83.9, "unit": "%"}, {"measurement": "remaining activity at 250 µM", "setting": "AtDHDPR1; [HBDTA-2] 0.00025 M, replicates 1-3", "result": 8.06, "unit": "%"}, {"measurement": "remaining activity at 500 µM", "setting": "AtDHDPR1; [5]", "result": 0, "unit": "%"}, {"measurement": "IC50", "setting": "AtDHDPR1; substrate and cofactor at limiting concentrations, read-out: IC50 against AtDHDPR1", "result": "169 ± 0.92", "unit": "µM"}, {"measurement": "remaining activity at 125 µM", "setting": "AtDHDPR2; [4]", "result": 65.7, "unit": "%"}, {"measurement": "remaining activity at 500 µM", "setting": "AtDHDPR2; [5]", "result": 0, "unit": "%"}, {"measurement": "IC50", "setting": "AtDHDPR2; substrate and cofactor at limiting concentrations, read-out: IC50 against AtDHDPR2", "result": "155 ± 0.9", "unit": "µM"}, {"measurement": "fold less potent at the DHDPR target site relative to MBDTA-2", "setting": "AtDHDPR; ratio of IC50 values", "result": "> 18", "unit": "fold"}]}, {"smiles": "COc1ccc(/C=C2\\SC(=O)N(CC(=O)O)C2=O)cc1", "note": "[MBDTA-2, (Z)-2-(5-(4-methoxybenzylidene)-2,4-dioxothiazolidin-3-yl)acetic acid]", "values": [{"measurement": "fold greater IC50 with excess vs limiting substrate and cofactor", "setting": "AtDHDPR1; AtDHDPR1", "result": 10, "unit": "fold"}, {"measurement": "IC50", "setting": "AtDHDPR1; IC50 against AtDHDPR1, excess substrate and nucleotide cofactor, 10-fold above KM", "result": "72.7 ± 1.07", "unit": "µM"}, {"measurement": "IC50", "setting": "AtDHDPR1; IC50 against AtDHDPR1, substrate and cofactor at limiting concentrations", "result": "6.92 ± 0.92", "unit": "µM"}, {"measurement": "remaining activity at 125 µM", "setting": "AtDHDPR1; [6]", "result": 9.11, "unit": "%"}, {"measurement": "remaining activity at 125 µM", "setting": "AtDHDPR1; [MBDTA-2] 0.000125 M, saturating substrate and cofactor, replicates 1-3", "result": 7.04, "unit": "%"}, {"measurement": "fold greater IC50 with excess vs limiting substrate and cofactor", "setting": "AtDHDPR2; AtDHDPR2", "result": 8, "unit": "fold"}, {"measurement": "IC50", "setting": "AtDHDPR2; IC50 against AtDHDPR2, excess substrate and nucleotide cofactor, 10-fold above KM", "result": "69.5 ± 1.06", "unit": "µM"}, {"measurement": "IC50", "setting": "AtDHDPR2; IC50 against AtDHDPR2, substrate and cofactor at limiting concentrations", "result": "8.58 ± 1.19", "unit": "µM"}, {"measurement": "remaining activity at 125 µM", "setting": "AtDHDPR2; [6]", "result": 0, "unit": "%"}, {"measurement": "remaining activity at 250 µM", "setting": "AtDHDPR2; [MBDTA-2] 0.00025 M, limiting substrate and cofactor, replicates 1-3", "result": 0, "unit": "%"}, {"measurement": "remaining activity at 500 µM", "setting": "AtDHDPR2; [MBDTA-2] 0.0005 M, saturating substrate and cofactor, replicates 1-3", "result": 0.507, "unit": "%"}, {"measurement": "effect on germination and growth", "setting": "Lolium rigidum; 1200 mg l^−1", "result": "inhibition of plant germination and growth"}, {"measurement": "fold reduction in root dry weight", "setting": "Lolium rigidum; [7]", "result": "~ 2 fold"}, {"measurement": "fold reduction in shoot dry weight", "setting": "Lolium rigidum; [7]", "result": "~ 5 fold"}, {"measurement": "fold reduction in shoot fresh weight", "setting": "Lolium rigidum; [7]", "result": "~ 4 fold"}, {"measurement": "Dry Weight, Roots", "setting": "Lolium rigidum; [8]", "result": "7 mg and 10 mg"}, {"measurement": "Dry Weight, Shoots", "setting": "Lolium rigidum; [8]", "result": "10 mg and 8 mg"}, {"measurement": "Fresh Weight, Roots", "setting": "Lolium rigidum; [8]", "result": "44 mg and 33 mg and 58 mg"}, {"measurement": "Fresh Weight, Shoots", "setting": "Lolium rigidum; [8]", "result": "71 mg and 107 mg and 109 mg"}, {"measurement": "mechanism of inhibition", "setting": "AtDHDPR; from IC50 shift with excess substrate and cofactor", "result": "competitive inhibitor"}, {"measurement": "IC50", "setting": "AtDHDPS2 [2]", "result": "64 ± 1", "unit": "µM"}]}]}
